Data set [1] deals with Human prostate cancer PC-3 cells. In words: Anti-proliferative effect, Alamar Blue assay, PC-3. To be noted: 4-day incubation; for IC50: Homo sapiens, 96 h, read-out: PC3 antiproliferative activity pIC50 (converted). It is filed as cell-based. Details: key to PC3 antiproliferative activity pIC50: pIC50 = negative log of IC50 (conc. reducing growth to 50% of control). The procedure:
Human prostate cancer PC-3 cells obtained from the ATCC were cultured in HAM'S F12 medium supplemented with 1 mM Sodium Pyruvate, 1.5 g/L Sodium Bicarbonate, 50 μg/ml gentamicin, non-essential amino acids and 10% fetal calf serum.
(§1) Resazurin was purchased from Aldrich (Prod. No. 199303). Potassium ferrocyanide, potassium ferricyanide, KH2PO4 and K2HPO4 were purchased from Sigma (Prod. Nos. P9387, P8131, P5655 and P8281, respectively).
(§2) Potassium Phosphate Buffer 0.1 M (PPB) was made as follows: 2.72 gram KH2PO4 and 13.86 gram K2HPO4 were dissolved in 500 ml milli-Q H2O, the pH was adjusted to pH 7.4 and the volume was brought to 1 liter with milli-Q H2O; the buffer was filter sterilised and stored at room temperature. Resazurin stock solution (PPB-A) was prepared fresh by dissolving 45 mg resazurin in 15 ml PBS. 30 mM potassium ferricyanide (PPB-B) was prepared by dissolving 0.987 gram potassium ferricyanide in 100 ml PPB. 30 mM potassium ferrocyanide (PPB-C) was prepared by dissolving 1.266 gram potassium ferrocyanide in 100 ml PPB.
(§3) Mixture of PPB-A, PPB-B and PPB-C was prepared by mixing equal volumes of the respective solutions. Resazurin work solution (herein termed “Alamar Blue” solution) was prepared by diluting said mixture 20× (vol/vol) in PPB and filter sterilising; the Alamar Blue solution could be kept at 4° C. for a maximum of 2 weeks.
(§4) For experiments in 384 wells plates the cells were seeded at a density of 4.5×10^3 cells/ml in Falcon 384-well culture plates (Life Technologies, Merelbeke, Belgium), black with clear bottom, in 45 μl culture medium. Cells were allowed to adhere to plastic for 24 hours. The tested compound was pre-diluted (1/50 in culture medium) and 5 μl pre-diluted compound was added to the wells. Following 4-day incubation, 10 μl of the Alamar Blue solution was added to each well and the cells were further incubated for 4 hours (HCT116) or 24 hours (PC-3) at 37° C. The fluorescence intensity was measured for each well on a Fluorescence plate reader (Fluoroskan, Labsystems, 540 nm excitation and 590 nm emission)
(§5) The antiproliferative activity was calculated as percentage of remaining viable cells in treated versus control (untreated cells) conditions. Within an experiment, the result for each experimental condition is the mean of 3 replicate wells. When appropriate, the experiments were repeated to establish full concentration-response curves. When appropriate, IC50-values (concentration of the drug, needed to reduce cell growth to 50% of the control) were computed using probit analysis for graded data (Finney, D. J., Probit Analyses, 2nd Ed. Chapter 10, Graded Responses, Cambridge University Press, Cambridge 1962). Herein the effects of test compounds are expressed as pIC50 (the negative log value of the IC50-value) (see Table 3).

The test system of data set [2] is Human colon carcinoma HCT116 cells. In words: Anti-proliferative effect, Alamar Blue assay, HCT116. It is filed as cell-based. The note with it: 4-day incubation; for IC50: Homo sapiens, HCT-116, 96 h, read-out: HCT116 antiproliferative activity pIC50 (converted). The procedure: Human colon carcinoma HCT116 cells obtained from the ATCC were cultured in McCoy's 5A medium supplemented with 2 mM L-Glutamine, 50 μg/ml gentamicin and 10% heat inactivated fetal calf serum.
as §1, §2, §3, §4, §5
(Alamar Blue is a resazurin reagent that responds to reducing activity.)

A further data set concerns α-β-Tubulin. Kind of data set: α-β-Tubulin polymerization assay. The note with it: inhibition of polymerization at 20 μM and 5 μM, reported as score. It is filed as biochemical. The protocol:
The tubulin polymerization assay is an adaptation of an assay originally described by Bonne, D. et al. (J. Biol. Chem., 1985, 260:2819-25). The assay kit was purchased from Cytoskeleton, Inc. (catalogue number BK011) and the assay was performed as described by the supplier with the following modifications. The assay was run in a 384-well black Proxiplate (Perkin Elmer) and volumes were adapted accordingly. The reactions were carried out in a final volume of 10 μl. Compounds were added to 25 μl of the reaction mix in 96-well PP plates (Corning) on ice and 10 μl of this mixture was dispensed into duplicates of the 384-well Proxiplates pre-warmed to 37° C. in a Fluoroskan Ascent plate reader (Thermo Scientific). Fluorescence measurements were taken every minute for one hour. The maximum slope of each well was determined (linear regression through 4 consecutive points) and polymerization was calculated as a percentage of polymerization observed in the absence of compound. Compounds were first measured at a concentration of 20 μM and then at 5 μM for those showing more than 50% inhibition at 20 μM as compared to the polymerization observed in the absence of compound. Results are reported in Table F-2 as scores defined as: a compound showing 0 to 50% inhibition at 20 μM is reported as score 1; a compound showing more than 50% inhibition at 5 μM is reported as score 3.

Data set [3] deals with human prostate cancer PC3 cells. Kind of data set: Eb1 cellular assay (Eb1 Comet assay). It is filed as cell-based. The note with it: 1 hour treatment, LAC = concentration where Eb1 foci absent in at least 50% of treated cells. The procedure:
The Eb1 Comet assay relies on the detection of the Eb1 protein at the plus end of polymerizing microtubules (Mimori-Kiyosue, 2000) using indirect immunofluorescence. Disruption of microtubule dynamics through de-polymerization or stabilization results in a de-localization of Eb1 from the growing microtubule ends and this is visualized by the disappearance of Eb1 containing cytoplasmic foci.
Briefly, human prostate cancer PC3 cells obtained from the American Type Culture Collection were grown in 96-well plates (Greiner, cat. no. 655090) in HAM's F12 medium as recommended by the provider (ATCC). The cells were treated for 1 hour at 37° C. with compounds dissolved in DMSO (0.6% final DMSO concentration). The culture medium was then removed by aspiration and the cells were fixed by adding cold methanol (−20° C.). After a 15 minutes incubation at −20° C., the cells were washed twice with DPBS (Gibco) containing 0.5% Triton X-100. Mouse Eb1 antibody (BD Transduction Laboratories, cat. no. 610534) was added to the cells (1/250 dilution in DPBS containing 1% BSA) and incubated overnight at room temperature. The antibody was subsequently removed and the cells washed twice with DPBS, 0.5% Triton X-100. Secondary goat anti-mouse antibody conjugated to Alexa 488 fluorescent dye (Molecular Probes) was added at a 1/500 dilution in DPBS, 1% BSA and incubated for 1 hour at 37° C. The cells were washed twice with DPBS, 0.5% Triton X-100 and then DPBS containing 0.5% Triton X-100 and 1/5000 Hoechst 33342 (Molecular Probes) was added. Microscopy based Eb1 foci visualization was carried out using an IN Cell Analyser 1000 (Amersham Biosciences) using a 20× objective. Compound dependent microtubule disruption was visually determined by the disappearance in Eb1 foci. The lowest active concentration (LAC) was determined as the concentration where Eb1 foci were absent in at least 50% of the treated cells. Herein the effects of test compounds are expressed as pLAC (the negative log value of the LAC-value) (see Table 3).

As a reminder, the melting point is the temperature of the solid-liquid transition.

The structures appear in SMILES notation.

`CCN1Cc2ccc([C@](C)(C#N)[C@@H]3CCc4c(Cl)ccnc43)cc2NC1=O` [Compound 13] registered a melting point of 226 °C. Moreover, the IC50 in data set [1] was 100 nM. The IC50 in data set [2] is 79.4 nM.
In turn, `C#Cc1cccc(CC(C)(C#N)c2ccc3c(c2)NC(=O)N(CC)C3)c1` (stereo not shown) [Compound 10] had a melting point of 84.4 to 102.4 °C. Moreover, in the data set on α-β-Tubulin, the tubulin polymerization score is 3 (a compound showing more than 50% inhibition at 5 μM is reported as score 3). In addition, the “Eb1 pLAC” value in data set [3] is listed as 7. In addition, in data set [1], the IC50 is 316 nM. The IC50 in data set [2] was 158 nM.
In the case of `CCN1Cc2ccc([C@](C)(C#N)Cc3ccccc3)cc2NC1=O` [Compound 4], the melting point amounted to 124 °C. Moreover, the tubulin polymerization score in the data set with α-β-Tubulin is 3 (a compound showing more than 50% inhibition at 5 μM is reported as score 3). Further, in data set [1], the IC50 was 501 nM. Besides, in data set [2], the IC50 was 200 nM.
The matching figures for `CCN1Cc2ccc([C@@](C)(C#N)Cc3cccc(C#N)c3)cc2NC1=O` [Compound 5]: 152 °C, 1 (a compound showing 0 to 50% inhibition at 20 μM is reported as score 1), greater than 10000 nM and greater than 10000 nM.
`CCN1Cc2ccc([C@@](C)(C#N)Cc3ccccc3)cc2NC1=O` [Compound 3] had a melting point of 124 °C. Moreover, in the data set with α-β-Tubulin, the tubulin polymerization score is reported as 1 (a compound showing 0 to 50% inhibition at 20 μM is reported as score 1). Also, the IC50 in data set [1] is greater than 10000 nM. For the same compound, the IC50 in data set [2] is greater than 10000 nM.
`CN1Cc2ccc(C(C)(C#N)Cc3ccccc3)cc2NC1=O` (stereo not shown) [Compound 7] came in with a melting point of 210 °C. For the same compound, in the data set with α-β-Tubulin, the tubulin polymerization score is reported as 3 (a compound showing more than 50% inhibition at 5 μM is reported as score 3). The “Eb1 pLAC” value in data set [3] amounted to 6.5. In addition, the IC50 in data set [1] was 501 nM. The IC50 in data set [2] was 794 nM.
In the case of `CN1Cc2ccc([C@@](C)(C#N)Cc3cccc(C#N)c3)cc2NC1=O` [Compound 27], the tubulin polymerization score in the data set on α-β-Tubulin is recorded as 3 (a compound showing more than 50% inhibition at 5 μM is reported as score 3). For the same compound, the “Eb1 pLAC” value in data set [3] is reported as 6.5. In data set [1], the “PC3 antiproliferative activity pIC50” value is on record as 6.8. Further, in data set [2], the “HCT116 antiproliferative activity pIC50” value was 7.1.
The compound `CCN1Cc2ccc([C@](C)(C#N)Cc3cccc(C#N)c3)cc2NC1=O` [Compound 6] came in with a melting point of 152 °C. Further, in the data set on α-β-Tubulin, the tubulin polymerization score is on record as 3 (a compound showing more than 50% inhibition at 5 μM is reported as score 3). In addition, in data set [3], the “Eb1 pLAC” value amounted to 7. Besides, the IC50 in data set [1] was 100 nM. Moreover, in data set [2], the IC50 was 50.1 nM.
Regarding `CCN1Cc2ccc([C@](C)(C#N)Cc3nc(OC)cc(OC)n3)cc2NC1=O` (single isomer, unassigned) [Compound 1], the melting point amounted to 95 °C. Moreover, the “Eb1 pLAC” value in data set [3] is greater than 7.5. For the same compound, in data set [1], the IC50 is 79.4 nM. Further, the IC50 in data set [2] was 39.8 nM.
`CCN1Cc2ccc(C(C)(C#N)Cc3cccc(I)c3)cc2NC1=O` (stereo not shown) [Compound 8] came in with a melting point of 83 °C. In addition, the tubulin polymerization score in the data set on α-β-Tubulin is recorded as 3 (a compound showing more than 50% inhibition at 5 μM is reported as score 3). Further, in data set [3], the “Eb1 pLAC” value is 6.5. For the same compound, the IC50 in data set [1] is 501 nM. Also, in data set [2], the IC50 is 200 nM.

These data come from US8168644B2, “Quinazolinone derivatives as tubulin polymerization inhibitors” (Janssen Pharmaceutica NV, priority 2008, dated 2012).
